Key:
human NTPDase8 = target: T1, human NTPDase8 (Homo sapiens, UniProt Q5MY95); assay: Capillary electrophoresis assay for human NTPDase8; format: biochemical; conditions: ATP (100 μM) as substrate
T1 sequence (Q5MY95 1-495): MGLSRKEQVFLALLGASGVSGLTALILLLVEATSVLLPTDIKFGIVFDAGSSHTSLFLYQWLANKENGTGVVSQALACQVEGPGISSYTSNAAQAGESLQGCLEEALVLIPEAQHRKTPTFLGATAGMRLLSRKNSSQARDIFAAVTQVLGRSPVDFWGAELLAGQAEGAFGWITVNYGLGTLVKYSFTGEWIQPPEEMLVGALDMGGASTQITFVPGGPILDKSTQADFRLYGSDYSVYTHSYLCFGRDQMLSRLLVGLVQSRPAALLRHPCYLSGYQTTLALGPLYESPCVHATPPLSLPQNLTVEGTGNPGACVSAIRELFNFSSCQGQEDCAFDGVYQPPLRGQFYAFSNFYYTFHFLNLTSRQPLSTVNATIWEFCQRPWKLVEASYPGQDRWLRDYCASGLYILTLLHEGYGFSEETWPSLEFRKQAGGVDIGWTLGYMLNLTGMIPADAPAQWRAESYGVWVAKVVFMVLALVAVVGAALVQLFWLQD
Procedure: Inhibitory activity of the CD73 inhibitors 2 and 20 at human NTPDases 1, 2, 3, and 8 was investigated using ATP (100 μM) as a substrate according to previously published procedures.^24 ATP and 2 were co-incubated with recombinantly expressed human NTPDases at 37° C. for 30 min, and the enzymatic reaction was terminated by heating at 90° C. for 10 min. The amount of enzyme preparation was adjusted to ensure 10-20% of substrate conversion. The formed products were separated by capillary electrophoresis (CE) and individually quantitated by diode array detection (DAD) at a wavelength of 260 nm. For inhibition analysis, at least three independent experiments were performed each in triplicate. The inhibition of the enzyme activity was calculated in relation to the positive control without inhibitor and plotted by GraphPad Prism 8 software (GraphPad software, San Diego, CA, USA) (for results see Table 2 and Table 3).
Test compounds were investigated at a concentration of 50 μM, and 100 μM ATP substrate according to published procedures.^24 Recombinantly expressed human NTPDases were employed. The amount of enzyme preparation was adjusted to ensure 10-20% of substrate conversion. […] The inhibition of the enzyme activity was calculated in relation to the positive control without inhibitor and plotted in GraphPad Prism 8 software (GraphPad software, San Diego, CA, USA). […]

human P2Y1 receptor = target: T2, human P2Y1 receptor (Homo sapiens, UniProt P47900); assay: Calcium mobilization assay at P2Y1 receptor; format: cell-based; conditions: 1231N1 astrocytoma cells
T2 construct: expressed in transfected cells; host or cells: 1321N1 astrocytoma cells (printed '1231N1 astrocytomna cells')
T2 sequence (P47900 whole entry): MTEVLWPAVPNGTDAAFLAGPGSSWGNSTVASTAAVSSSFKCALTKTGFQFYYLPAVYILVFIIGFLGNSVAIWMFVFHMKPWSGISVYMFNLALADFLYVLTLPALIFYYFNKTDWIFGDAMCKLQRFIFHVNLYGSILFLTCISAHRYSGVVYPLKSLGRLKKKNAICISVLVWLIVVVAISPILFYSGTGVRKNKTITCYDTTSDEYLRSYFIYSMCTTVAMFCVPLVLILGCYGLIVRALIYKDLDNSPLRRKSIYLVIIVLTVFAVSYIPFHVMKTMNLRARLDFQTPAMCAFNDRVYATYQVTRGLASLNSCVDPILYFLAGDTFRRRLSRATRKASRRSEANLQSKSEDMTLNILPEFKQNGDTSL
Procedure: Interaction of 2 with the ADP-activated human P2Y1 receptor, which is Gq protein-coupled, was determined by calcium mobilization assays. The receptor was stably expressed in 1231N1 astrocytomna cells^25, 26 (for results see Table 2). Compound 20 was not tested at the P2Y1 receptor since the fluorescent compound would interfere with the calcium mobilization assay.

IC50 (human NTPDase8) [µM] | IC50 (human P2Y1 receptor; 2-methylthio-ADP as agonist at EC80 (3 μM), read-out: Inhibition P2Y1 receptor IC50) [µM] | EC50 (human P2Y1 receptor; read-out: Activation P2Y1 receptor EC50) [µM] | SMILES
> 50 | > 10 | > 10 | CCCN(Cc1ccc(-c2cn(CCF)nn2)cc1)c1nc(Cl)nc2c1ncn2[C@@H]1O[C@H](COP(=O)(O)CP(=O)(O)O)C(O)C1O (stereo partly shown) [Compound 2]
< 50 |  |  | O=C(NCCCCCCNC(=O)c1ccc2c(c1)C1(OC2=O)c2ccc(O)cc2Oc2cc(O)ccc21)c1ccc(CNc2nc(Cl)nc3c2ncn3[C@@H]2O[C@H](COP(=O)(O)CP(=O)(O)O)[C@@H](O)[C@H]2O)cc1 [Compound 20, (((((2R,3S,4R,5R)-5-(2-chloro-6-((4-((6-(3′,6′-dihydroxy-3-oxo-3H-spiro[isobenzofuran-1,9′-xanthene]-6-carboxamido)-hexyl)carbamoyl)benzyl)amino)-9H-purin-9-yl)-3,4-dihydroxytetrahydrofuran-2-yl)methoxy)(hydroxy)phosphoryl)methyl)phosphonic acid]
